Experimental data: US20040044006A1, “Methods of use of quinolone compounds against pneumococcal and haemophilus bacteria” (priority 1999, published 2004)
Converted amounts (≈) assume the structure as drawn.

Tested on: quinolone-resistant Haemophilus influenzae strains
Experiment: Microdilution MIC determination in HTM for quinolone-resistant Haemophilus influenzae strains
Type: cell-based
Protocol: Inocula were prepared from chocolate agar plates incubated for a full 24 hours by the direct colony suspension method as follows: In a tube of Mueller-Hinton broth (Difco), an organism suspension was made to a density of a 0.5 McFarland standard (1×10^8 CFU/ml). The latter inoculum was diluted in sterile saline such that final organisms suspensions in trays yielded colony counts of 3-8×10^5 CFU/ml. Frozen microdilution trays were obtained from MicroMedia Systems, Inc. (Cleveland, Ohio, USA). Each tray contained all antimicrobials prepared in freshly made HTM. Wells were inoculated with 100 μl suspensions and incubated in ambient air at 35° C. for 20-24 hours. The lowest drug concentration showing no growth was read as the MIC. Standard quality control strains, including H. influenzae ATCC 49766, H. influenzae ATCC 49247, Staphylococcus aureus ATCC 29213 and Escherichia coli ATCC 25922 were included with each run.

[1] = strain 1, GyrA S84→L, ParC S133→A N138→S, GyrB None, ParE None
[2] = strain 2, GyrA S84→F, ParC None, GyrB None, ParE S458→L
[3] = strain 3, GyrA S84→L, ParC S84→I, GyrB None, ParE None
[4] = strain 4, GyrA S84→F D88→N, ParC D83→N, GyrB None, ParE T459→S
[5] = strain 5, GyrA S84→Y, ParC E88→K, GyrB Q468→R, ParE G405→S
[6] = strain 6, GyrA S84→L A117→E, ParC S84→R, GyrB None, ParE D420→N
[7] = strain 7, GyrA S84→L A117→E, ParC S84→R, GyrB None, ParE D420→N
[8] = strain 8, GyrA S84→L A117→E, ParC S84→R, GyrB None, ParE D420→N
[9] = strain 9, GyrA S84→F D88→Y, ParC S84→R N138→S, GyrB None, ParE S458→A S474→N
[10] = strain 1, mutations S133-A N138-S, None, S84-L
[11] = strain 2, mutations NONE, S458-L, S84-F, None
[12] = strain 3, mutations S84-I, None, S84-L
[13] = strain 4, mutations D83-N, S458-S-T459, S84-F D88-N, Q468-R
[14] = strain 5, mutations E88-K, G405-S, S84-Y, None
[15] = strain 6, mutations S84-R, D420-N, S84-L A117-E, None
[16] = strain 7, mutations S84-R, D420-N, S84-L A117-E, None
[17] = strain 8, mutations S84-R, D420-N, S84-L A117-E, None
[18] = strain 9, mutations S84-R N138-S, S458-A S474-N, S84-F D88-Y, None

| Compound | MICs [1] [µg/mL] | MICs [2] [µg/mL] | MICs [3] [µg/mL] | MICs [4] [µg/mL] | MICs [5] [µg/mL] | MICs [6] [µg/mL] | MICs [7] [µg/mL] | MICs [8] [µg/mL] | MICs [9] [µg/mL] | MIC [10] [µg/mL] | MIC [11] [µg/mL] | MIC [12] [µg/mL] | MIC [13] [µg/mL] | MIC [14] [µg/mL] | MIC [15] [µg/mL] | MIC [16] [µg/mL] | MIC [17] [µg/mL] | MIC [18] [µg/mL] | also measured |
| --- | --- | --- | --- | --- | --- | --- | --- | --- | --- | --- | --- | --- | --- | --- | --- | --- | --- | --- | --- |
| O=C(O)c1cn(C2CC2)c2cc(N3CCNCC3)c(F)cc2c1=O [Cip] | 0.5 | 0.25 | 1 | 1 | 1 | 2 | 2 | 2 | 8 | – | – | – | – | – | – | – | – | – | – |
| O=C(O)c1cn(C2CC2)c2cc(N3CCNCC3)c(F)cc2c1=O [Cipro] | – | – | – | – | – | – | – | – | – | – | – | – | – | – | – | – | – | – | MIC (Haemophilus influenzae, strain 1, mutations S133-A N138-S, None, S84-L): 0.5 µg/mL (≈ 1.51 µM); MIC (Haemophilus influenzae, strain 2, mutations NONE, S458-L, S84-F, None): 0.25 µg/mL (≈ 0.754 µM); MIC (Haemophilus influenzae, strain 3, mutations S84-I, None, S84-L): 1 µg/mL (≈ 3.02 µM); MIC (Haemophilus influenzae, strain 4, mutations D83-N, S458-S-T459, S84-F D88-N, Q468-R): 1 µg/mL (≈ 3.02 µM); MIC (Haemophilus influenzae, strain 5, mutations E88-K, G405-S, S84-Y, None): 1 µg/mL (≈ 3.02 µM); MIC (Haemophilus influenzae, strain 6, mutations S84-R, D420-N, S84-L A117-E, None): 2 µg/mL (≈ 6.04 µM); MIC (Haemophilus influenzae, strain 7, mutations S84-R, D420-N, S84-L A117-E, None): 2 µg/mL (≈ 6.04 µM); MIC (Haemophilus influenzae, strain 8, mutations S84-R, D420-N, S84-L A117-E, None): 2 µg/mL (≈ 6.04 µM); MIC (Haemophilus influenzae, strain 9, mutations S84-R N138-S, S458-A S474-N, S84-F D88-Y, None): 8 µg/mL (≈ 24.1 µM) |
| CO/N=C1\CN(c2nc3c(cc2F)c(=O)c(C(=O)O)cn3C2CC2)CC1CN (stereo not drawn) [Gemi] | – | – | – | – | – | – | – | – | – | 0.03 (≈ 0.077 µM) | 0.125 (≈ 0.321 µM) | 0.125 (≈ 0.321 µM) | 0.25 (≈ 0.642 µM) | 0.25 (≈ 0.642 µM) | 0.5 (≈ 1.28 µM) | 0.5 (≈ 1.28 µM) | 0.5 (≈ 1.28 µM) | 1 (≈ 2.57 µM) | – |
| Cc1c(F)c(N2CCNC(C)C2)cc2c1c(=O)c(C(=O)O)cn2C1CC1 (stereo not drawn) [Gre] | 0.25 | 0.5 | 0.5 | 2 | 1 | 1 | 1 | 1 | 4 | – | – | – | – | – | – | – | – | – | – |
| Cc1c(F)c(N2CCNC(C)C2)cc2c1c(=O)c(C(=O)O)cn2C1CC1 (stereo not drawn) [Grepa] | – | – | – | – | – | – | – | – | – | 0.25 (≈ 0.696 µM) | 0.5 (≈ 1.39 µM) | 0.5 (≈ 1.39 µM) | 2 (≈ 5.56 µM) | 1 (≈ 2.78 µM) | 1 (≈ 2.78 µM) | 1 (≈ 2.78 µM) | 1 (≈ 2.78 µM) | 4 (≈ 11.1 µM) | – |
| C[C@H]1COc2c(N3CCN(C)CC3)c(F)cc3c(=O)c(C(=O)O)cn1c23 [Lev] | 0.5 | 0.25 | 1 | 0.5 | 1 | 2 | 2 | 2 | 4 | – | – | – | – | – | – | – | – | – | – |
